Source: patent US8003660B2, “Modulators of muscarinic receptors” (Vertex Pharmaceuticals Incorporated, priority 2006, dated 2011)

Legend:
Assay type in all cases: cell-based
M3 muscarinic receptor = molecular target: T1, M3 muscarinic receptor (Homo sapiens, UniProt P20309); experiment: Functional mobilization of intracellular calcium (FLIPR) in CHO cells expressing M3; details: for EC50: CHO cells expressing M3, FLIPR calcium; for Emax: CHO, 100% = maximum response obtained with the Carbachol control, read-out: M3 Efficacy
T1 construct: expressed in transfected cells; host or cells: CHO (M3-CHO)
T1 sequence (P20309 whole entry): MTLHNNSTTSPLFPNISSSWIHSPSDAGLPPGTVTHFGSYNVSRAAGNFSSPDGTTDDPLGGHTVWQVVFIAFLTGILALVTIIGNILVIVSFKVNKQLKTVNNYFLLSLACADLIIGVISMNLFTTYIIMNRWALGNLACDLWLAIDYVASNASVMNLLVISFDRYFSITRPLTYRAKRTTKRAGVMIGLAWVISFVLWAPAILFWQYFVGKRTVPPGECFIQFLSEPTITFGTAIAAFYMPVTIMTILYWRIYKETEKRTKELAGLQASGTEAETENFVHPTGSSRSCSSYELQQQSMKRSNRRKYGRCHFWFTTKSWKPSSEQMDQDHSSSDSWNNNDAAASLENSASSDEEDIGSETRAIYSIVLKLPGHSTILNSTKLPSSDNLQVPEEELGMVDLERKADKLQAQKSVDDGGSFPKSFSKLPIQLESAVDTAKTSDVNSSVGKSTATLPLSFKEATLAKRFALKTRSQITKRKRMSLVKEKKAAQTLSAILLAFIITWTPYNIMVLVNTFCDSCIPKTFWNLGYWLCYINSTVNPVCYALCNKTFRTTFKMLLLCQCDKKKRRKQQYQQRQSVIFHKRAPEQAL
Outline: (§1)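 Calcium flux is read on FLIPR over 60 sec at 488/540 nm in muscarinic-receptor CHO lines. Antagonist mode adds carbachol at EC80 after 15 min compound preincubation or with simultaneous co-application. Agonist mode adds compound alone. Cells carry Fluo-3 or Calcium 3 dye in probenecid-containing pH 7.4 buffer, 0.5% DMSO final.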

M2 muscarinic receptor = molecular target: T2, M2 muscarinic receptor (Homo sapiens, UniProt P08172); experiment: Functional mobilization of intracellular calcium (FLIPR) in CHO cells expressing M2; details: for EC50: CHO cells expressing M2, FLIPR calcium; for Emax: CHO, 100% = maximum response obtained with the Carbachol control, read-out: M2 Efficacy
T2 construct: expressed in transfected cells; host or cells: CHO (M2-CHO)
T2 sequence (P08172 1-466): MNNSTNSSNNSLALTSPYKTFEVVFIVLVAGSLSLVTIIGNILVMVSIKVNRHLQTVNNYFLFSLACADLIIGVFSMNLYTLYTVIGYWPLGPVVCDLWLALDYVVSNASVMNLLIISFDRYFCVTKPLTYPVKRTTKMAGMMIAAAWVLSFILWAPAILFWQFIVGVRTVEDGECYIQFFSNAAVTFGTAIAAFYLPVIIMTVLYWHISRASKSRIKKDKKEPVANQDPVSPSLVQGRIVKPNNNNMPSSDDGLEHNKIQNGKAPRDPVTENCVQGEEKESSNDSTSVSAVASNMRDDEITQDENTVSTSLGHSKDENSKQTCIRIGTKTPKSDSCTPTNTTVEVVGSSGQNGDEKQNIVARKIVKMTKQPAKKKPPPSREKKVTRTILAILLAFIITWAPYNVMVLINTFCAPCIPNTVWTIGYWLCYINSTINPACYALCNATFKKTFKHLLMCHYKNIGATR
Outline: as §1

M4 muscarinic receptor = molecular target: T3, M4 muscarinic receptor (Homo sapiens, UniProt P08173); experiment: Functional mobilization of intracellular calcium (FLIPR) in CHO cells expressing M4; details: for EC50: CHO cells expressing M4, FLIPR calcium; for Emax: CHO, 100% = maximum response obtained with the Carbachol control, read-out: M4 Efficacy
T3 construct: expressed in transfected cells; host or cells: CHO (M4-CHO)
T3 sequence (P08173 1-479): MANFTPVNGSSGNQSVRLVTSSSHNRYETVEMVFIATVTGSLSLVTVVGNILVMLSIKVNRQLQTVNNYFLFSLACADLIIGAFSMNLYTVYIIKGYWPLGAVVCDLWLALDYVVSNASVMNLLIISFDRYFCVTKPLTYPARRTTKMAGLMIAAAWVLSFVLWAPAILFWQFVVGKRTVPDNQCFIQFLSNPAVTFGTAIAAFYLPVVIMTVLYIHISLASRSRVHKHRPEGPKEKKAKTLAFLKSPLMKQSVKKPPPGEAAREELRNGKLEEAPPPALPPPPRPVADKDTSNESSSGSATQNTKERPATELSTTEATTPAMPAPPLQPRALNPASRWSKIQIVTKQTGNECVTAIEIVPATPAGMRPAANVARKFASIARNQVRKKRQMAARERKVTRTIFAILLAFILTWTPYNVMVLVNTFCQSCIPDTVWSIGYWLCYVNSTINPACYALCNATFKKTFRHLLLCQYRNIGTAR
Outline: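 Recombinant CHO cells loaded with Fluo-3 AM or Calcium 3 dye in pH 7.4 buffer containing 1 mM probenecid, with 0.5% final DMSO. For agonism, compound is added directly. For inhibition, it is preincubated 15 min, or co-applied, before carbachol at EC80. FLIPR fluorescence (ex 488, em 540 nm) is recorded for 60 s.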

M1 muscarinic receptor = molecular target: T4, M1 muscarinic receptor (Homo sapiens, UniProt P11229); experiment: Functional mobilization of intracellular calcium (FLIPR) in CHO cells expressing M1; details: for EC50: CHO cells expressing M1, FLIPR calcium; for Emax: CHO, 100% = maximum response obtained with the Carbachol control, read-out: M1 Efficacy
T4 construct: expressed in transfected cells; host or cells: CHO (M1-CHO)
T4 sequence (P11229 1-460): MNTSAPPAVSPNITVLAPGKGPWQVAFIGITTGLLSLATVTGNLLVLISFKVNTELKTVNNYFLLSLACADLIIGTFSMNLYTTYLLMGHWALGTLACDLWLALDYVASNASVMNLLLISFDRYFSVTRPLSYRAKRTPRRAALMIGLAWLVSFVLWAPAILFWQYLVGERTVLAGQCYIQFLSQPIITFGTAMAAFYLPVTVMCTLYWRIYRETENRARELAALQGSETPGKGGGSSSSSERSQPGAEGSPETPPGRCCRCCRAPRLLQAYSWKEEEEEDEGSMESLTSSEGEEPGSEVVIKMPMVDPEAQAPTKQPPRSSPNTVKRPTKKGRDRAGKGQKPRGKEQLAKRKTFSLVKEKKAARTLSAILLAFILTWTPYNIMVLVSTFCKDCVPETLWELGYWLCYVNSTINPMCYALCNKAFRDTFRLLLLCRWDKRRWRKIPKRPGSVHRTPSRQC
Outline: as §1

Structure (SMILES)	EC50 (M3 muscarinic receptor) [µM]	Emax (M3 muscarinic receptor) [%]	EC50 (M2 muscarinic receptor) [µM]	Emax (M2 muscarinic receptor) [%]	EC50 (M4 muscarinic receptor) [µM]	Emax (M4 muscarinic receptor) [%]	EC50 (M1 muscarinic receptor) [µM]	Emax (M1 muscarinic receptor) [%]
C[C@H](C(=O)N[C@H]1CCC2(CCN(CCC(C)(C)C)CC2)c2ccccc21)N1CCCCC1=O [compound 38]	> 5	< 25	> 5	< 25	< 2	25 to 100	< 2	25 to 100
CCN(C(=O)C1CCCO1)[C@H]1CCC2(CCN(CCC(C)(C)C)CC2)c2ccccc21 (stereo partly shown) [compound 39]	> 5	< 25	> 5	< 25	< 2	25 to 100	> 5	25 to 100
Cc1cc(C(=O)N[C@@H]2CCC3(CCN(CCC(C)(C)C)CC3)c3cc(F)ccc32)nn1C [compound 40]	> 5	< 25	< 2	25 to 100	< 2	25 to 100	< 2	25 to 100
CC(=O)N1CCCCC1C(=O)N[C@H]1CCC2(CCN(CCC(C)(C)C)CC2)c2ccccc21 (stereo partly shown) [compound 41]	> 5	< 25	> 5	< 25	< 2	25 to 100	< 2	25 to 100
CCN(C(=O)CC(C)(C)O)[C@H]1CCC2(CCN(CCC(C)(C)C)CC2)c2ccccc21 [compound 42]	> 5	< 25	> 5	< 25	< 2	25 to 100	2 to 5	25 to 100
CC#CCN(C(C)=O)[C@H]1CCC2(CCN(CCC(C)(C)C)CC2)c2ccccc21 [compound 43]	> 5	< 25	< 2	25 to 100	< 2	25 to 100	< 2	25 to 100
CCN(C(=O)C1CCC(=O)C1)[C@H]1CCC2(CCN(CCC(C)(C)C)CC2)c2ccccc21 (stereo partly shown) [compound 44]	> 5	< 25	> 5	< 25	< 2	25 to 100	2 to 5	25 to 100
CC(=O)N[C@H]1CCC2(CCN(CCC(C)CC(C)(C)C)CC2)c2ccccc21 (stereo partly shown) [compound 45]	> 5	25 to 100	2 to 5	< 25	> 5	< 25	< 2	25 to 100
CC(=O)N[C@H](C)C(=O)N[C@H]1CCC2(CCN(CCC(C)(C)C)CC2)c2cc(F)ccc21 [compound 46]	> 5	< 25	< 2	25 to 100	< 2	25 to 100	< 2	25 to 100
CC(=O)N(C(C)C)[C@H]1CCC2(CCN(CCC(C)C)CC2)c2ccccc21 [compound 47]	> 5	< 25	> 5	< 25	2 to 5	25 to 100	2 to 5	25 to 100
CCCC(CCC)N1CCC2(CC[C@H](NC(=O)C3CC3)c3ccccc32)CC1 [compound 48]	> 5	< 25	> 5	< 25	> 5	< 25	> 5	< 25
CSC(C)CCN1CCC2(CC[C@H](NC(C)=O)c3ccccc32)CC1 (stereo partly shown) [compound 49]	> 5	< 25	> 5	< 25	< 2	25 to 100	2 to 5	25 to 100
COC(=O)CN(C(C)=O)[C@H]1CCC2(CCN(CCC(C)(C)C)CC2)c2ccccc21 [compound 50]	> 5	< 25	> 5	< 25	< 2	25 to 100	> 5	25 to 100
CN(C)C(=O)N(C)[C@H]1CCC2(CCN(CCC(C)(C)C)CC2)c2ccccc21 [compound 51]	> 5	< 25	> 5	< 25	< 2	25 to 100	< 2	25 to 100
C[C@H](C(=O)N[C@H]1CCC2(CCN(CCC(C)(C)C)CC2)c2cc(F)ccc21)N1CCCC1=O [compound 52]	> 5	< 25	< 2	< 25	< 2	25 to 100	< 2	25 to 100
CC(CC(C)(C)C)N1CCC2(CC[C@H](NC(=O)N(C)C)c3ccccc32)CC1 (stereo partly shown) [compound 53]	> 5	< 25	> 5	< 25	< 2	25 to 100	> 5	< 25
CCN(C(=O)CCC(C)=O)[C@H]1CCC2(CCN(CCC(C)(C)C)CC2)c2ccccc21 [compound 54]	> 5	< 25	> 5	< 25	< 2	25 to 100	< 2	25 to 100
CC(C)(C)CCN1CCC2(CC[C@@H](NC(=O)C3CCCN(C(=O)C4CC4)C3)c3ccccc32)CC1 (stereo partly shown) [compound 55]	> 5	< 25	< 2	< 25	< 2	25 to 100	2 to 5	< 25
CC[C@@H](C)CN1CCC2(CC[C@H](NC(C)=O)c3ccccc32)CC1 [compound 56]	> 5	< 25	< 2	25 to 100	< 2	25 to 100	< 2	25 to 100
CC(C)(C)CCN1CCC2(CC[C@H](N3CCCCC3=O)c3ccccc32)CC1 [compound 57]	> 5	< 25	> 5	< 25	< 2	25 to 100	2 to 5	25 to 100
Cn1cc(C(=O)N[C@H]2CCC3(CCN(CCC(C)(C)C)CC3)c3ccccc32)cn1 [compound 58]	> 5	< 25	< 2	25 to 100	< 2	25 to 100	< 2	25 to 100
CC(=O)N1CCCC(C(=O)N[C@H]2CCC3(CCN(CCC(C)(C)C)CC3)c3cc(F)ccc32)C1 (stereo partly shown) [compound 59]	> 5	< 25	2 to 5	< 25	< 2	25 to 100	< 2	25 to 100
CC(=O)N1CCCC1C(=O)N[C@H]1CCC2(CCN(CCC(C)(C)C)CC2)c2ccccc21 (stereo partly shown) [compound 60]	> 5	< 25	> 5	< 25	< 2	25 to 100	< 2	25 to 100
